# Reference: patent publication US8044018B2, “Reagents and methods for smooth muscle therapies” (Arizona Board of Regents, priority 2008, dated 2011)
# Assays:
# [1] = system: internal anal sphincter smooth muscles; test: Muscle bath: human internal anal sphincter, tonic sustained contractions; settings: 1 mM final concentration; after washout of sodium nitroprusside
# Excerpt: The internal anal sphincter was obtained from a human pathology specimen after an abdominal perineal resection for cancer. The smooth muscles were equilibrated in a muscle bath as described in example 6. The muscles developed tonic sustained contractions when warmed in the bicarbonate buffer. These contractions relaxed with the addition of the guanylate cyclase activator, sodium nitroprusside (SNP). When the sodium nitroprusside was washed out of the bath, the muscles again contracted spontaneously. The muscles were then treated with the PTD-phosphopeptide analogues of HSP20 (NH2-βAYARRAAARQARAWLRRAS*APLPGLK-COOH, 1 mM final concentration) (SEQ ID NO:307).
# A10 cells [2] = test: Serum-induced proliferation, cell counts; format: cell-based; settings: 50 μM in 10% FBS; 24 hours; serum starved 3 days beforehand
# Protocol: A10 cells were serum starved for 3 days. The cells were then treated with media containing 10% fetal bovine serum, PTD-pHSP20 (NH2-βAYARRAAARQARAWLRRAS*APLPGLK-COOH (SEQ ID NO:307), or PTD-scrambled-pHSP20 (NH2-βAYARRAAARQARAPRKS*LWALGRPLA-COOH (SEQ ID NO:308) (50 μM). After 24 hours cell counts were performed. The number of cells per well in the serum starved plates averaged […] (+/−7.4) compared to 276+/−6.1 in wells containing 10% fetal bovine serum (FBS). In the presence of FBS, the phosphopeptide analogues of HSP20 containing a transduction domain inhibited of smooth muscle proliferation, 149+/−14.6 compared to transduction of the scrambled phosphopeptide analogue of HSP20 (242.3+/−15.3 cells/well). The results of these experiments are illustrated in FIG. 9.
# [3] = system: Human saphenous vein smooth muscles; test: Muscle bath: human saphenous vein rings, contraction in response to serotonin; settings: peptide in 7.5% dextran gel; serotonin 1 uM
# Protocol: Human saphenous vein was obtained from remnants that were discarded after vascular bypass operations. Rings of the saphenous vein were equilibrated in a muscle bath as described in experiment 4. The rings were treated with a 7.5% dextran gel alone, or a 7.5% dextran gel containing the phosphopeptide analogues of HSP20 (NH2-βAYARRAAARQARAWLRRAS*APLPGLK-COOH) (SEQ ID NO:307). The rings were then treated with serotonin (1 uM). The rings treated with the 7.5% dextran gel alone contracted in response to serotonin.
# human saphenous vein = test: Intimal hyperplasia in cultured human saphenous vein segments, morphometric intimal area; settings: 14 days; media with 30% fetal bovine serum; versus serum alone or scrambled analogue
# Protocol: Segments of human saphenous vein were cultured in media containing 30% fetal bovine serum.
# porcine coronary artery = test: Muscle bath: serotonin pre-contracted rings of porcine coronary artery, endothelium not denuded; settings: cumulative doses added every 10 minutes; n=5; FIG. 4
# Protocol: Rings of porcine coronary artery in which the endothelium was not denuded, were suspended in a muscle bath containing bicarbonate buffer (120 mM NaCl, 4.7 mM KCl, 1.0 mM MgSO4, 1.0 mM NaH2PO4, 10 mM glucose, 1.5 mM CaCl2, and 25 mM […], pH 7.4), equilibrated with 95% O2/5% CO2, at 37° C. at one gram of tension for 2 hours. The muscles were pre-contracted with serotonin ([…] for 10 minutes) and cumulative doses of PTD-pHSP20 (NH2-βAYARRAAARQARAWLRRAS*APLPGLK-COOH, closed circles) (SEQ ID NO:307) or PTD-scrambled-pHSP20 (NH2-βAYARRAAARQARAPRKS*LWALGRPLA-COOH open circles) (SEQ ID NO:308) were added every 10 minutes (FIG. 4). The percentage of relaxation is depicted as a percentage of the maximal serotonin contraction (n=5, *=p<0.05 compared to 0 peptide added). The concentrations of peptide used are depicted on the x axis. Representative rings were treated with peptides (1 mM final concentration) linked to FITC (15 minutes at 37° C.), fixed in 4% paraformaldehyde and examined under fluorescence microscopy (40× magnification).
# A10 cells [4] = test: Scratch wound migration assay; format: cell-based; settings: 50 μM; 10% FBS media; 24 hours
# Protocol: Confluent A10 cells were serum starved (0.5% fetal bovine serum, FBS) for 48 hours. A linear wound was made in the smooth muscle cell monolayer using a rubber scraper and the scratched edges were marked using metal pins.
# [5] = system: Intestinal smooth muscle from the tinea coli; test: Muscle bath: pig tinea coli, contractile response to carbachol; settings: peptide in a dextran gel, 1 mM final concentration; then treated with carbachol
# Protocol: Intestinal smooth muscle was obtained from the tinea coli of a pig. These muscles were equilibrated in a muscle bath as described in example 6. The muscles produced transient contractions in response to high extracellular potassium chloride (KCl 110 mM) and in response to carbachol (10^−6 M). The muscles were then treated with a dextran gel containing the PTD-phosphopeptide analogues of HSP20 (NH2-βAYARRAAARQARAWLRRAS*APLPGLK-COOH, 1 mM final concentration) (SEQ ID NO:307) and treated with carbachol.
# Tracheal smooth muscles = test: Muscle bath: rabbit tracheal smooth muscle pre-contracted with carbachol; set-up: species or system New Zealand White rabbits
# Protocol: (§1) Tracheal and corpra cavernosal smooth muscles were obtained from a New Zealand White rabbits after sacrifice. The muscles were equilibrated in a muscle bath as described in example 6. The tracheal muscles were pre-contracted with carbachol and the corpra cavernosal smooth muscles were pre-contracted with norepinephrine. The muscles were then treated with the PTD-phosphopeptide analogues of HSP20 (NH2-βAYARRAAARQARAWLRRAS*APLPGLK-COOH) (SEQ ID NO:307).
# A10 cells [6] = test: Boyden chamber migration assay; format: cell-based
# [7] = system: Bovine aortic endothelial cells; test: Focal adhesion disassembly, interference reflection microscopy; format: cell-based; settings: HSP20 peptides 10 uM for 30 minutes; serum starved one hour
# Protocol: Bovine aortic endothelial cells were plated on glass coverslips (80K-100K cells) in DMEM plus 10% FBS over night (24 wells plate). The cells were serum starved (no serum) for one hour and incubated in the presence of the peptide analogues of HSP20 [NH2-βAYARRAAARQARAWLRRAS*APLPGLK-COOH-pHSP20 (10 uM) (SEQ ID NO:307) or scrambled analogues of HSP20 [NH2-βAYARRAAARQARAPRKS*LWALGRPLA-COOH-scHSP20 (10 uM)] (SEQ ID NO:308) for 30 minutes. The cells were fixed with 3% glutaraldehyde and the number of focal adhesions was detected with interference reflection microscopy. The Hep I peptide was used as a positive control. This peptide binds to the heparin binding site of thrombospondin in induces focal adhesion disassembly. […] The results are illustrated in FIG. 7.
# [8] = system: corpra cavernosal smooth muscles; test: Muscle bath: rabbit corpra cavernosal smooth muscle pre-contracted with norepinephrine; set-up: species or system New Zealand White rabbits
# Protocol: as §1
substance,measurement,setting,value
"NH2-βAYARRAAARQARAWLRRAS*APLPGLK-COOH (AYARRAAARQARAWLRRASAPLPGLK; HELM PEPTIDE1{[bAla].Y.A.R.R.A.A.A.R.Q.A.R.A.W.L.R.R.A.[O=C([C@H](COP(=O)(O)O)N[*:1])[*:2]].A.P.L.P.G.L.K}$$$$V2.0; SMILES CC(C)C[C@H](NC(=O)CNC(=O)[C@@H]1CCCN1C(=O)[C@H](CC(C)C)NC(=O)[C@@H]1CCCN1C(=O)[C@H](C)NC(=O)[C@H](COP(=O)(O)O)NC(=O)[C@H](C)NC(=O)[C@H](CCCNC(=N)N)NC(=O)[C@H](CCCNC(=N)N)NC(=O)[C@H](CC(C)C)NC(=O)[C@H](Cc1c[nH]c2ccccc12)NC(=O)[C@H](C)NC(=O)[C@H](CCCNC(=N)N)NC(=O)[C@H](C)NC(=O)[C@H](CCC(N)=O)NC(=O)[C@H](CCCNC(=N)N)NC(=O)[C@H](C)NC(=O)[C@H](C)NC(=O)[C@H](C)NC(=O)[C@H](CCCNC(=N)N)NC(=O)[C@H](CCCNC(=N)N)NC(=O)[C@H](C)NC(=O)[C@H](Cc1ccc(O)cc1)NC(=O)CCN)C(=O)N[C@@H](CCCCN)C(=O)O) [PTD-pHSP20, Phosphopeptide analogue of HSP20 with a protein transduction domain different from TAT]",relaxation of spontaneous tonic contraction,[1],relaxed and spasm was prevented
same,number of cells per well,A10 cells [2],149+/−14.6 cells/well
same,contraction in response to serotonin,[3],did not contract
same,intimal area,human saphenous vein,significant reduction in intimal area
same,relaxation as percentage of the maximal serotonin contraction,porcine coronary artery,relax and prevent spasm
same,number of cells migrating into a 1 cm^2 scratched area,A10 cells [4],inhibition of migration
same,contractile response to carbachol,[5],significantly attenuated
same,relaxation of pre-contracted muscle,Tracheal smooth muscles,relaxed and spasm was prevented
same,migration of A10 cells,A10 cells [6],inhibition of migration
same,focal adhesion disassembly (number of focal adhesions),[7],led to focal adhesion disassembly
same,relaxation of pre-contracted muscle,[8],relaxed and spasm was prevented
